Data published in patent US10137210B2, “Thioflavin derivatives for use in antemortem diagnosis of Alzheimer's disease and in vivo imaging and prevention of amyloid deposition” (UNIVERSITY OF PITTSBURGH—OF THE COMMONWEALTH SYSTEM OF …, priority 2000, dated 2018).
“Also recorded” adds a separate entry of the source. Read-outs that look alike come from different tables or passages of the source. Blank lines part the entries; values can stand above or below the compound they belong to.

Legend:
[1] = In vivo brain uptake and retention in mice; parameters: species or system mouse; conditions: for Mouse Brain Uptake @ 2 min / Mouse Brain Uptake @ 30 min: 11C-labeled compound; for 2 min (% ID/g): brain uptake at 2 min; for 2 min (% ID/g) / 30 min (% ID/g): Table 1 lower part; for 30 min (% ID/g): brain uptake at 30 min
Description: In Table 1 below are five different ^11C-labeled BTA derivatives where their in vitro binding properties, log P values, and in vivo brain uptake and retention properties in mice have been determined.

Aβ(1-40) fibrils = Aβ(1-40) fibrils (Homo sapiens (Human), UniProt P05067); assay: [N-methyl-11C]BTA-1 binding assay with Aβ(1-40) fibrils
synthetic Aβ(1-40) = synthetic Aβ(1-40) (Homo sapiens (Human), UniProt P05067); assay: Competitive binding with [3H]CG and synthetic Aβ(1-40)
[2] = tested on: plaques and tangles in post-mortem AD brain; assay: Preliminary tissue staining of post-mortem AD brain with ThT and derivatives; type: binding, human; conditions: for staining of plaques and tangles in AD brain: post-mortem AD brain, fluorescence; for staining detectable at low concentration of staining solution: staining solutions containing only 10 nM of the BTA compound
Description: Thus, in the development of these compounds, tissue staining has served the dual purpose of assessing specificity of staining in AD brain tissue as well as assessing binding affinity by screening staining solutions over a range of concentrations similar to that employed in the binding assays.

[3] = Partitioning between octanol and phosphate-buffered saline (logP)
[4] = target: Aβ amyloid plaques and cerebrovascular amyloid (Homo sapiens (Human), UniProt P05067); assay: In vivo labeling of amyloid deposits in PS1/APP transgenic mice, multiphoton microscopy; parameters: species or system mouse; conditions: 10 mg/kg ip, imaged 24 hours later, living PS1/APP mice
Description: Twenty-four hours later, multiphoton fluorescence microscopy was employed to obtain high resolution images in the brains of living mice using a cranial window technique.

[5] = In vivo PET brain imaging in baboons; conditions: normal baboon brain, 5-15 min post injection, 3 mCi i.v.
Procedure: Brain imaging studies were conducted following the intravenous injection of 3-5 mCi of radiotracer. Typical attenuation- and decay-corrected time-activity curves for a frontal cortex region of interest for each of the three compounds are shown in FIG. 6. It is noted that the absolute brain uptake of these 3 compounds in baboons is very similar to that in mice (i.e., about 0.47 to 0.39%ID/g*kg). […] The rank order of maximum brain uptake and clearance rate of the three compounds were also the same in mice and baboons. […] Typical amounts of unmetabolized injectate in plasma for all three compounds were about: 90% at 2 minutes; 35% at 30 minutes; and 20% at 60 minutes.
The emission files collected 5-15 min post injection were summed to provide the images. Brain regions include: Ctx (cortex); Thl (thalamus); Occ (occipital cortex); and Cer (cerebellum).

[6] = tested on: amyloid deposits in postmortem AD brain; assay: Staining of postmortem AD brain tissue sections with unlabeled BTA-1; type: binding, human
[7] = target: amyloid deposits in PS1/APP mouse brain (Homo sapiens (Human), UniProt P05067); assay: Staining of transgenic PS1/APP mouse brain sections with unlabeled BTA-1; type: binding
Description: The PS1/APP mouse model combines two human gene mutations known to cause Alzheimer's disease in a doubly transgenic mouse which deposits Aβ fibrils in amyloid plaques in the brain beginning as early as 3 months of age. […] NFT have not been observed in transgenic mouse models of amyloid deposition.

[8] = tested on: Aβ and tau deposits in brain homogenates; assay: [3H]BTA-1 binding to brain homogenates (AD brain and Braak stage II control brain); parameters: species or system human
Description: This control brain had frequent numbers of NFT in the entorhinal cortex (FIG. 5A), but no neuritic or diffuse plaques in any area of the brain (FIG. 11C). The NFT numbers in the EC of Cntl 04 were similar to the numbers found in many AD cases (FIG. 11B).

[9] = Table 1, upper part, read-out: Ki (nM) to Aβ fibrils
[10] = Table 1, lower part, read-out: Ki
[11] = competition for Aβ sites, FIG. 5 right panel, read-out: Ki

Sequence of Aβ(1-40) fibrils (P05067 672-711): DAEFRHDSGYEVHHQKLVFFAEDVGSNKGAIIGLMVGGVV
Sequence of synthetic Aβ(1-40) (P05067 672-711): as above
Sequence of amyloid deposits in PS1/APP mouse brain (P05067 672-713): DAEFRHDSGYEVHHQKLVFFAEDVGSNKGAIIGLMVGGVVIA
Sequence of Aβ amyloid plaques and cerebrovascular amyloid (P05067 672-713): as above

- Mouse Brain Uptake @ 2 min [1]: 0.43 ± 0.11 % ID/g * kg
- Mouse Brain Uptake @ 30 min [1]: 0.094 ± 0.038 % ID/g * kg
- Ratio of 2 min/30 min Uptake Values ([1]; mouse brain): 4.6
- logP (physchem): 2.7
- Ki (Aβ(1-40) fibrils; [9]): 5.7 nM
Compound: COc1ccc2nc(-c3ccc(N[11CH3])cc3)sc2c1

- 2:30 min ratio ([1]; Table 1, lower part): 2.7
- 2 min (% ID/g) [1]: 9.08 % ID/g
- 30 min (% ID/g) [1]: 3.4 % ID/g
- logP (physchem): 3.17
- Ki (Aβ(1-40) fibrils; [10]): 8.32 nM
Compound: Nc1ccc(-c2nc3ccccc3s2)cc1[125I]

- log of the partition coefficient, logPoct ([3]; octanol / phosphate-buffered saline): 0.57
Compound: Cc1ccc2c(c1)sc(-c1ccc(N(C)C)cc1)[n+]2C.[Cl-] [ThT, Thioflavin T, reference compound]
- competition with [3H]CG for binding sites on Aβ(1-40) (synthetic Aβ(1-40)): lack of competition; also recorded: did not
- staining of plaques and tangles in AD brain [2]: weakly stains plaques

- 2 min (% ID/g) [1]: 5.64 % ID/g
- 30 min (% ID/g) [1]: 0.36 % ID/g
- logP (physchem): 1.65
- Ki (Aβ(1-40) fibrils; [10]): 11.1 nM
Compound: Nc1ccc(-c2nc3ccc(O)cc3s2)cc1[125I]

- staining of amyloid plaques ([7]; 8 month old PS1/APP mouse brain tissue): clearly visible
- staining of cerebrovascular amyloid ([7]; FIG. 8, right): brightly stained
- specific binding (Aβ(1-40) fibrils; 200 nM Aβ(1-40) fibrils): ~70%
- binding in cerebellum and entorhinal cortex ([8]; Braak VI AD brain): low binding
- binding in frontal gray versus cerebellum and entorhinal cortex ([8]; Braak VI AD brain): over ten-fold higher levels
- binding in NFT-rich entorhinal cortex versus cerebellum and frontal gray ([8]; Braak stage II control brain (Cntl 04)): no greater than
Compound: CNc1ccc(-c2nc3ccccc3s2)cc1 [BTA-1, 2-(4-Methylaminophenyl)benzothiazole]
- in vivo labeling of plaques and cerebrovascular amyloid [4]: plaques and cerebrovascular amyloid are clearly distinguishable
- distribution of radioactivity in brain (PET) [5]: uniform distribution of radioactivity throughout the brain
- staining of neurofibrillary tangles (NFT) ([6]; AD brain, FIG. 8, left): more faintly stained
- staining of amyloid plaques ([6]; postmortem AD brain tissue): clearly visible

- Mouse Brain Uptake @ 2 min [1]: 0.32 ± 0.09 % ID/g * kg
- Mouse Brain Uptake @ 30 min [1]: 0.42 ± 0.10 % ID/g * kg
- Ratio of 2 min/30 min Uptake Values ([1]; mouse brain): 0.8
- logP (physchem): 3.3
- Ki (Aβ(1-40) fibrils; [9]): 2.3 nM
Compound: COc1ccc2nc(-c3ccc(N(C)[11CH3])cc3)sc2c1

Compound: Cc1ccc2nc(-c3ccc(N(C)C)cc3)sc2c1 [6-Me-BTA-2, 2-(4′-dimethylaminophenyl)-6-methyl-benzothiazole]
- staining of plaques and tangles in AD brain [2]: stain plaques and tangles

Compound: Cc1ccc2nc(-c3ccc(N)cc3)sc2c1 [6-Me-BTA-0, 2-(4′-aminophenyl)-6-methyl-benzothiazole]
- staining of plaques and tangles in AD brain [2]: stain plaques and tangles
- staining detectable at low concentration of staining solution [2]: could still be detected

Compound: CNc1ccc(-c2nc3ccc(C)cc3s2)cc1 [6-Me-BTA-1]
- staining detectable at low concentration of staining solution [2]: could still be detected

- brain clearance ([1]; mouse brain): poor brain clearance
Compound: COc1ccc2nc(-c3ccc(N)cc3)sc2c1 [6-MeO-BTA-0, 6-Methoxy-2-(4-aminophenyl)benzothiazole]

- Mouse Brain Uptake @ 2 min [1]: 0.44 ± 0.14 % ID/g * kg
- Mouse Brain Uptake @ 30 min [1]: 0.057 ± 0.010 % ID/g * kg
- logP (physchem): 2.7
Compound: [11CH3]Nc1ccc(-c2nc3ccccc3s2)cc1

- Mouse Brain Uptake @ 2 min [1]: 0.15 ± 0.06 % ID/g * kg
- Mouse Brain Uptake @ 30 min [1]: 0.16 ± 0.02 % ID/g * kg
- Ratio of 2 min/30 min Uptake Values ([1]; mouse brain): 0.9
- logP (physchem): 3.9
Compound: Cc1ccc2nc(-c3ccc(N(C)[11CH3])cc3)sc2c1

- Mouse Brain Uptake @ 2 min [1]: 0.32 ± 0.07 % ID/g * kg
- Mouse Brain Uptake @ 30 min [1]: 0.17 ± 0.05 % ID/g * kg
- logP [3]: 3.3
Compound: Cc1ccc2nc(-c3ccc(N[11CH3])cc3)sc2c1

- Ki (Aβ(1-40) fibrils; [11]): 3 ± 0.8 nM
Compound: CN(C)c1ccc(-c2nc3ccccc3s2)cc1 [BTA-2, 2-(4-dimethylaminophenyl)benzothiazole]

Compound: c1ccc(-c2nc3ccccc3s2)cc1 [BTP, 2-phenylbenzothiazole, reference compound]
- staining of plaques and tangles in AD brain [2]: does not appear to stain plaques

- Ki (Aβ(1-40) fibrils; [11]): 100 ± 16 nM
Compound: Nc1ccc(-c2nc3ccccc3s2)cc1 [BTA-0, 2-(4-Aminophenyl)benzothiazole]

- competition with [3H]CG for binding sites on Aβ(1-40) (synthetic Aβ(1-40)): competed
Compound: Thioflavin S [ThS]
